According to PMC6614837 (Nucleic Acids Research, 2019):

What was measured:
[1] = molecular target: T1, RNase P holoenzyme from Thermotoga maritima (Thermotoga maritima, UniProt Q9X1H4); test: Real-time fluorescence-based (FRET) RNase P activity assay with minihelix (Mh) substrate; assay type: biochemical; conditions: fluorescent Mh substrate 270 nM, holoenzyme 33 nM, 10% DMSO, 37°C, 400 mM AmOAc, 100 mM MgCl2
T1 construct: made in house
T1 sequence (Q9X1H4 1-117): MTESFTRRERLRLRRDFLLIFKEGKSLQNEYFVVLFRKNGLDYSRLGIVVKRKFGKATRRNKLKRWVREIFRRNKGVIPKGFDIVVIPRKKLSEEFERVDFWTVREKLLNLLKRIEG
In short: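 Reconstituted holoenzyme (P RNA:P protein 1:1.1) at 33 nM with 270 nM minihelix labelled Alexa Fluor 488/BHQ quencher, in buffer H (pH 7.4, 400 mM AmOAc, 100 mM MgCl2), 10% DMSO, 37°C. Cleavage followed as fluorescence increase (ex 485, em 535 nm); initial velocities from linear slopes.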

[2] = molecular target: Bacillus subtilis RNase P; design: method as in PMID 25249623; conditions: fluorescent pre-tRNA substrate ref 26; read-out: Reported IC50; cited from earlier work
[3] = molecular target: T2, RNase P protein (TmP, P protein) (Thermotoga maritima, UniProt Q9X1H4 1-117); test: BLI; 10 mM Mg2+, 5% DMSO; BLI (Octet RED96): 20 mM HEPES pH 7.4, 100 mM ammonium acetate, 10 mM MgCl2, 2.5-5% DMSO, 30 C; P protein:P RNA in 33 mM Tris, 66.6 mM HEPES, 200 mM ammonium acetate, 10 mM MgCl2, pH 7.4; conditions: protein: recombinant; tags: N-terminal His6 (GST fusion cleaved with TEV); single strand
T2 sequence: T1 sequence (Q9X1H4 1-117)

CC(=O)Oc1cc(-c2coc3cc(OC(C)=O)c(OC(C)=O)c(OC(C)=O)c3c2=O)cc(OC(C)=O)c1OC(C)=O [iriginol hexaacetate, reference compound]
IC50 [1]: 29500 nM | IC50 [2]: 800 nM

GGAAAAAGAU (ssRNA) [5' RNA leader (10 nt)]
Kd [3]: 35.6 nM
